Laboratory results taken from a melting point compilation (Tetko et al.; mined from patent text by program, amines drawn as free bases though some values may be those of a salt).

Row | SMILES | melting point
1 | CNC(=O)C(Cc1ccccc1)NC(=O)Nc1n[nH]c(=S)s1 (stereo not drawn) | 228 °C
2 | Cc1cccc(C(=O)n2nc(Nc3cccc(OCC(=O)NCCN4CCOCC4)c3)nc2N)c1 | 145 to 147 °C
3 | CCOC(=O)C(C)OCc1cc2cc(C(F)(F)F)ccc2n1S(=O)(=O)c1cc(OC)ccc1OC (stereo not drawn) | 130 to 132 °C
4 | Cc1c(C#N)c(=O)[nH]c(=O)n1Nc1c(Cl)cc(Cl)cc1Cl | > 305 °C
5 | Cc1sc2nc3ccc(C#N)cn3c(=O)c2c1C | 306 to 307 °C
6 | NS(=O)(=O)c1ccccc1OC(Cl)=CCl | 147 to 149 °C
7 | CCCc1ccc(-c2ccc(C(=O)N3Cc4cccn4Cc4ccccc43)cc2)cc1 | 118 to 120 °C
8 | COc1cc(OC)c([C@@H]2CCCC[C@H]2O)c(O)c1C(C)=O (relative stereo) | 162 to 164 °C
9 | CC(C)c1csc2[nH]c(=O)c(=O)[nH]c12 | > 250 °C
10 | CCOC(=O)c1cnc2cc([N+](=O)[O-])ccc2n1 | 221 to 223 °C
11 | C/C(Br)=C(\Br)c1cn(-c2c(Cl)cc(C(F)(F)F)cc2Cl)nc1C#N | 134 to 135 °C
12 | Cc1cc2c(-c3ccccc3Cl)c(NC(=O)Nc3ccc(F)cc3F)c(=O)n(C)c2cc1C | 242 to 244 °C
13 | C[C@H](C(=O)O)c1ccc2cc(OCCCCCCc3cccc(OCc4ccccc4)c3OCc3ccccc3)ccc2c1 | 66 to 70 °C
14 | CS(=O)(=O)c1cc(Cl)cc(-c2cccnc2-c2cccnc2)c1 | 135 °C
15 | Cc1cc(C)nc(NC(=O)NS(=O)(=O)c2csnc2Cl)n1 | 136 to 140 °C
16 | CCCn1c(=S)sc2c(=N)n(NC(=O)c3ccco3)cnc21 | 206 °C
17 | CCOC(=O)CC(NC(=O)c1ccccc1)C(=O)c1cccs1 (stereo not drawn) | 75 °C
18 | NCC(O)CN1CCC(C2(c3ccc(F)cc3)OCCO2)CC1 (stereo not drawn) | 132 to 136 °C
19 | COC(=O)c1ccc(Cc2cn(C)c3ccc([N+](=O)[O-])cc23)c(OC)c1 | 144 to 146 °C
20 | N#Cc1cc([N+](=O)[O-])ccc1N1CCOCC1 | 138 to 140 °C

Row | SMILES | melting point
21 | Cc1ccccc1OC(C)C(=O)OC1CC(O)C=C2C=CC(C)C(CCC3CC(O)CC(=O)O3)C21 (mixture of isomers) | 85 to 87 °C
22 | CC(C)C[C@H](NC(=O)OCc1ccco1)C(=O)N[C@@H](Cc1ccccc1)C(=O)CSCc1ccco1 | 115 to 118 °C
23 | CCOC(=O)Nc1cc2c3ccccc3n(Cc3ccccc3)c2cn1 | 217 to 218 °C
24 | CCOC(=O)c1c(-c2ccccc2)c(-c2ccc(F)cc2)cn1C(C)C | 104 to 105 °C
25 | COc1ccccc1-c1ccc2cnc(Nc3ccc4c(c3)N3CCC4CC3)nn12 | 89 to 95 °C
26 | CCCC(=O)Nc1n[nH]c2c([N+](=O)[O-])c(Br)ccc12 | 248 °C
27 | CC(C)CNC(=O)c1ccc(C2(F)CC2c2ccc(Cl)cc2)cc1 (stereo not drawn) | 140 °C
28 | CN(C(N)=O)C1c2ccccc2Oc2ccccc21 | 199 to 202 °C
29 | COC(=O)COc1cc2c(c3c1c(C(=O)C(N)=O)c(C)n3Cc1ccc(F)cc1)CCC2 | 134 to 136 °C
30 | CN(C)Cc1ccccc1-c1ccc(Br)cc1 | 60 to 62 °C
31 | CCOc1ccc(O)c(F)c1F | 73 °C
32 | CCn1ncc2nc(C(=O)OCC#N)c(C)nc21 | 83 to 84 °C
33 | COC(=O)C(C)(C)Cc1cc2cc(OCc3ccc4ccccc4n3)ccc2[nH]1 | 131 to 132 °C
34 | CCN(c1cc2c3c(c1)CCCC3(C)CCC2)c1ncc(C(=O)O)cn1 | 257 to 258 °C
35 | O=C(O)c1oc(=O)c2ccc(Cl)cc2c1-c1ccccc1 | 206 to 208 °C
36 | COc1ccc(C(=O)N[C@@H]2CCc3cccc(N4CCN(C)CC4)c3C2)cc1 | 186 to 187 °C
37 | OCc1ccc(/C=C/c2ccc(OC(F)(F)F)cc2)cc1 | 161 to 163 °C
38 | Fc1ccc(/C=C/c2cc(F)cc(F)c2)cc1 | 47 °C
39 | CC(C)(O)c1cc(C(C)(C)O)cc(C(C)(C)O)c1 | 148 to 150 °C
40 | O=C(CCC(NS(=O)(=O)c1ccc2oc3ccccc3c2c1)C(=O)O)NCCc1ccccc1 (stereo not drawn) | 197 to 201 °C

Further lines, results first:

Row | melting point | SMILES
41 | 220 to 223 °C | COc1ccc(-c2cnc(NS(=O)(=O)c3ccc(C)cc3)nc2)cc1
42 | 104 to 105 °C | CC[C@H](C)C(OCc1ccccc1)[C@@H]1[C@H]([N+](=O)[O-])[C@H](c2ccccc2)N[C@]1(C)C(=O)NCCC(=O)O (stereo partly drawn)
43 | 328 °C | CCOC(=O)c1c[nH]c2cnc3c(F)c(Cl)c(F)cc3c2c1=O
44 | 234 to 240 °C | Nc1ccc(Oc2c(N3CCCC3)cc(C(=O)O)cc2S(N)(=O)=O)cc1
45 | 167 to 168 °C | Cc1nc(-c2ccc(OCC(F)(F)C(F)F)cc2)sc1C(=O)O
46 | 176 to 178 °C | O=C(NCCO)c1c([N+](=O)[O-])cccc1S(=O)(=O)NCCO
47 | 117 to 119 °C | CCOC(=O)C1=Cc2cc(C#C[Si](C)(C)C)ccc2NC1C(F)(F)F (stereo not drawn)
48 | 214 to 217 °C | CCn1ncnc1COc1nn2c(-c3ccccc3F)nncc2c1-c1ccncc1
49 | 235 to 236 °C | O=C(NC(CO)c1ccccc1)c1ccccc1 (stereo not drawn)
50 | 106 to 107 °C | CCNc1nc(Nc2ccccc2)ncc1CCC(=O)OCC
51 | 157 to 159 °C | COc1ccc(S(=O)(=O)Nc2nc(-c3cccc([N+](=O)[O-])c3)cs2)cc1
52 | 159 to 165 °C | CCCCCC(=NOC)c1cc(C#N)c(=O)[nH]c1C
53 | > 300 °C | Cc1nc(C)c(-c2[nH]nc3c2C(=O)c2c(NC(=O)NN4CCOCC4)cccc2-3)s1
54 | 103 to 106 °C | Nc1ccc(C2CCSCC2)cc1
55 | 117 to 119 °C | CCCCCCCCCC(=O)OC1CCC2(CC(=O)N(CCCCN3CCN(c4nsc5ccccc45)CC3)C(=O)C2)C1 (stereo not drawn)
56 | 132 to 133 °C | N#CNc1cccc2ccccc12
57 | 104 °C | CCCCCCCCCCCCCCCC1CCCC(c2ccc(O)cc2)(c2ccc(O)cc2)C1 (stereo not drawn)

Row | melting point | SMILES
58 | 95 to 96 °C | OCCN(Cc1ccccc1)c1nc2ccccc2s1
59 | 48 °C | CCCCc1cnc(-c2ccc(N=C=O)cc2)nc1
60 | 137 to 138 °C | Cc1cccc(NC#N)c1N1CCOCC1
61 | 106 to 108 °C | Nc1cccc(S(=O)(=O)NC(=O)C(F)(F)F)c1
62 | 114 to 115 °C | CC(CC(=O)NC(=O)OC(C)(C)C)Nc1ccc(Cl)cc1 (stereo not drawn)
63 | 193 to 196 °C | COCc1nc(OC)c(NS(=O)(=O)c2cccc(Cl)c2Cl)nc1Cl
64 | 53 to 55 °C | CC(C)(C)OC(=O)[C@@H]1CCC(=O)N1C(=O)OC(C)(C)C
65 | 88 to 89 °C | CN1CCCCNC1=C[N+](=O)[O-]
66 | 109 to 115 °C | COc1cc2c(cc1Nc1ncc(Cl)c(N[C@@H]3CCCC[C@H]3NS(C)(=O)=O)n1)CCNC(=O)C2
67 | 69.2 to 70 °C | CC(C)(COCc1cccc(Oc2ccccc2)c1)c1ccc(O)cc1
68 | 113 to 115 °C | c1ccc2c(CCCCN3CCc4c(sc5ccccc45)C3)c[nH]c2c1
69 | 259 °C | CNC(=O)c1cccc(C)c1Nc1nc(Nc2ccc3c(c2)C(=O)NCCC3)ncc1Cl
70 | 203 to 205 °C | NC(=O)c1c(NC(=O)C2CC2)sc2c1CCCC2=O
71 | 276 to 279 °C | O=C1Nc2ccc([N+](=O)[O-])cc2Cn2nnnc21
72 | 240 to 242 °C | CC(C)=CCCn1c(=O)sc2c(=O)[nH]c(N)nc21
73 | 102 to 105 °C | CC(CCC(=O)O)C1CCC2C3C(O)C(F)C4CC(O)CCC4(C)C3CCC12C (stereo not drawn)
